Results reported in ChEMBL document CHEMBL1201862, “PubChem BioAssay data set” (2004).
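The compound was tested at five concentrations on cells cultured in 96-well plates, with a 48-hour exposure period. At the GI50, growth is halved.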 Calls of active or inactive are those of the source. Cut-off read from the data, not from the text of the source: active = GI50 up to about 1.1 µM and inactive = higher.

Key:
Test in all cases: growth of human tumour cells (NCI), 48 h
786-0 = test system: 786-0
A498 = test system: A498
A549 = test system: A549
ACHN = test system: ACHN
CAKI-1 = test system: CAKI-1
CCRF-CEM = test system: CCRF-CEM
COLO 205 = test system: COLO 205
DLD-1 = test system: DLD-1
DMS-114 = test system: DMS-114
DMS-273 = test system: DMS-273
EKVX = test system: EKVX
HCC 2998 = test system: HCC 2998
HCT-116 = test system: HCT-116
HCT-15 = test system: HCT-15
HL-60 = test system: HL-60
HOP-62 = test system: HOP-62
HOP-92 = test system: HOP-92
HT-29 = test system: HT-29
IGROV-1 = test system: IGROV-1
K562 = test system: K562
KM-20L2 = test system: KM-20L2
KM12 = test system: KM12
LOX IMVI = test system: LOX IMVI
LXFL 529 = test system: LXFL 529
M14 = test system: M14
M19-MEL = test system: M19-MEL
MOLT-4 = test system: MOLT-4
Malme-3M = test system: Malme-3M
NCI-H226 = test system: NCI-H226
NCI-H23 = test system: NCI-H23
NCI-H460 = test system: NCI-H460
NCI-H522 = test system: NCI-H522
OVCAR-3 = test system: OVCAR-3
OVCAR-4 = test system: OVCAR-4
OVCAR-5 = test system: OVCAR-5
OVCAR-8 = test system: OVCAR-8
RPMI-8226 = test system: RPMI-8226
RXF 393 = test system: RXF 393
SF-268 = test system: SF-268
SF-295 = test system: SF-295
SF-539 = test system: SF-539
SK-MEL-28 = test system: SK-MEL-28
SK-MEL-2 = test system: SK-MEL-2
SK-MEL-5 = test system: SK-MEL-5
SK-OV-3 = test system: SK-OV-3
SN12C = test system: SN12C
SNB-19 = test system: SNB-19
SNB-75 = test system: SNB-75
SNB-78 = test system: SNB-78
SR = test system: SR
SW-620 = test system: SW-620
TK-10 = test system: TK-10
U-251 = test system: U-251
UACC-257 = test system: UACC-257
UACC-62 = test system: UACC-62
UO-31 = test system: UO-31

Compound: COc1cc2cc3c4c(cc(OC)c(OC)c4c2cc1OC)CCN3C(=O)N(C)C
- GI50 (786-0): 44.5 µM (inactive)
- GI50 (A498): 97.3 µM (inactive)
- GI50 (A549): > 100 µM (inactive)
- GI50 (ACHN): 75.5 µM (inactive)
- GI50 (CAKI-1): 34.8 µM (inactive)
- GI50 (CCRF-CEM): 96.6 µM (inactive)
- GI50 (COLO 205): > 100 µM (inactive)
- GI50 (DLD-1): > 100 µM (inactive)
- GI50 (DMS-114): > 100 µM (inactive)
- GI50 (DMS-273): 89.1 µM (inactive)
- GI50 (EKVX): > 100 µM (inactive)
- GI50 (HCC 2998): > 100 µM (inactive)
- GI50 (HCT-116): > 100 µM (inactive)
- GI50 (HCT-15): > 100 µM
- GI50 (HL-60): > 100 µM (inactive)
- GI50 (HOP-62): 72.1 µM (inactive)
- GI50 (HOP-92): 91 µM (inactive)
- GI50 (HT-29): 83.4 µM (inactive)
- GI50 (IGROV-1): > 100 µM (inactive)
- GI50 (K562): > 100 µM (inactive)
- GI50 (KM-20L2): 58.2 µM (inactive)
- GI50 (KM12): > 100 µM (inactive)
- GI50 (LOX IMVI): > 100 µM (inactive)
- GI50 (LXFL 529): 77.4 µM (inactive)
- GI50 (M14): > 10 µM (inactive)
- GI50 (M19-MEL): > 100 µM (inactive)
- GI50 (MOLT-4): > 100 µM (inactive)
- GI50 (Malme-3M): 59.3 µM (inactive)
- GI50 (NCI-H226): 56.2 µM (inactive)
- GI50 (NCI-H23): > 10 µM (inactive)
- GI50 (NCI-H460): 87.7 µM (inactive)
- GI50 (NCI-H522): 29.9 µM (inactive)
- GI50 (OVCAR-3): > 100 µM (inactive)
- GI50 (OVCAR-4): 89.5 µM (inactive)
- GI50 (OVCAR-5): > 100 µM (inactive)
- GI50 (OVCAR-8): > 100 µM (inactive)
- GI50 (RPMI-8226): 82.6 µM (inactive)
- GI50 (RXF 393): > 100 µM (inactive)
- GI50 (SF-268): > 100 µM (inactive)
- GI50 (SF-295): 37.8 µM (inactive)
- GI50 (SF-539): 34.5 µM (inactive)
- GI50 (SK-MEL-28): 27.9 µM (inactive)
- GI50 (SK-MEL-2): > 100 µM (inactive)
- GI50 (SK-MEL-5): > 100 µM (inactive)
- GI50 (SK-OV-3): > 100 µM (inactive)
- GI50 (SN12C): > 100 µM (inactive)
- GI50 (SNB-19): > 100 µM (inactive)
- GI50 (SNB-75): 19.5 µM (inactive)
- GI50 (SNB-78): > 100 µM (inactive)
- GI50 (SR): > 100 µM (inactive)
- GI50 (SW-620): > 100 µM (inactive)
- GI50 (TK-10): > 10 µM (inactive)
- GI50 (U-251): > 100 µM (inactive)
- GI50 (UACC-257): > 100 µM (inactive)
- GI50 (UACC-62): > 100 µM (inactive)
- GI50 (UO-31): > 100 µM (inactive)
